Data reported in publication doi:10.1101/415984v3 (biorxiv, 2018).

Assays:
[1] = biological target: T1, dFABP (Drosophila brain-type FABP) (Drosophila melanogaster, UniProt Q9VGM2); experiment: isothermal titration calorimetry; assay type: binding
T1 sequence (Q9VGM2 1-130): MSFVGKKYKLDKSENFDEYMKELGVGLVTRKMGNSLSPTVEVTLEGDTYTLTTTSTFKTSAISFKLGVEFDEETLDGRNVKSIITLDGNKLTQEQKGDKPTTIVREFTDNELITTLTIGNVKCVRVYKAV

[2] = biological target: T1, dFABP (Drosophila brain-type FABP); experiment: intrinsic tyrosine fluorescence melting; assay type: binding; conditions: GuHCl-purified dFABP; protein:OA 1:2; 20 mM Tris pH 8.0, 1 mM beta-ME

Kd [1]: ~1600 nM
change in Tm [2]: ~ 5 °C
Structure (SMILES): CCCCCCCC/C=C\CCCCCCCC(=O)O [OA, oleic acid]
